Here are results for seven molecules from patent US9416115B2, “Fused heterocyclic compounds as ion channel modulators” (Gilead Sciences, Inc., priority 2013, dated 2016).

Data set [1] deals with Ischemia-Induced ST Segment Elevation in Anesthetized Rabbits. As to the kind of experiment: Ischemia-induced ST segment elevation in anesthetized rabbits. To be noted: iv infusion; 15 min LAD ischemia after 30 min of compound administration. The data set is classed as in vivo, New Zealand rabbits. As to the method:
This study was undertaken to determine the anti-ischemic effects of compounds of the present disclosure in an in vivo rabbit model.
Female New Zealand rabbits (3.0-4.0 kg) were purchased from Western Oregon Rabbitry. Animals were housed on a 12-h light and dark cycle and received standard laboratory chow and water. All experiments were performed in accordance with the Guide for the Care and Use of Laboratory Animals published by The National Research Council and with the experimental protocol approved by the Institutional Animal Care Committee of Gilead Sciences, Inc.
(§1) Rabbits were anesthetized with ketamine (35 mg/kg) and xylazine (5 mg/kg) intramuscular injection (im). A tracheotomy was performed and the trachea was intubated with an endotracheal tube. The animal was ventilated with room air supplemented with oxygen using a pressure control animal ventilator (Kent Scientific Corp., Torrington, Conn.) at a respiratory rate of 40 strokes/min and peak inspiration pressure of 10 mmH2O, which was adjusted to keep blood gases and pH within the physiological range (iSTAT clinic analyzer, Heska Corp.; Waukesha, Wis.). The left femoral artery was cannulated for the measurement of blood pressure (BP). Blood samples were also withdrawn from femoral artery. The right external jugular vein was cannulated for drug/vehicle administration. Needle electrodes were inserted subcutaneously into the limbs for recording of the surface electrocardiogram (ECG).
The heart was exposed via an incision in the 4th intercostal space (4th and/or 5th ribs were cut for a clear surgical vision). The chest was opened and a pericardial cradle was formed using 4 retractors. A coronary artery occluder, comprised of a snare made of 5 cm PE-10 tubing with a 6-0 Prolene polypropylene suture in it, was placed loosely around the left anterior descending artery (LAD) at its origin. Two unipolar electrodes, made with teflon coated silver wire attached to a small patch of filter paper, were attached on the surface of the ischemic and normal regions of the left ventricle to record epicardial electrocardiogram.
(§2) Reference electrodes were placed in the open incision of the neck. The body temperature of the animal was monitored via a rectal thermometer and maintained at 37-40° C. by adjusting the surface temperature of the surgical table. Regional ischemia (15 min) was induced by ligating the LAD followed by 15 min of reperfusion caused by releasing the ligation. The heart was excised at the end of the experiment and the LAD was re-ligated. The ischemic area was visualized by perfusing the heart with 1% Evans blue in saline and calculated as a percentage of total ventricular weight. Rabbits with ischemic area less than 10% or larger than 25% were excluded from the analysis. Animals were randomly assigned to vehicle and test compound groups. Test compounds were dissolved in 15% NMP, 10% Solutol and 75% de-ionized water (dH2O). Test compounds were given as an iv infusion at a rate targeted to reach plasma concentrations of 1 μM. After 30 min of compound administration the heart was subjected to 15 min of ischemia followed by 15 min of reperfusion.

A short description of data set [2]: Plasma concentration in the rabbit ischemia study. Format: in vivo, New Zealand rabbits. The settings on record: iv infusion targeted to 1 uM plasma. As to the method: as §1, §2
The next data set has as its target T1, hNav1.3 (SCN3A) (Homo sapiens, UniProt Q9NY46).
T1 construct: expressed in transfected cells
As to the kind of experiment: Voltage-dependent inhibition of the Nav1.3 sodium channel. The settings on record: voltage-dependent block of peak current, read-out: Nav 1.3-VDB 1 uM. Format: cell-based. The method, then:
HEK-293 cells stably expressing wild-type (WT) hNav1.3 (SCN3A NCBI # NP 001075, SCN1B NCBI # NM 001037.4, SCN2B NCBI # NM 004588.2) were used to record INa. Cells are maintained with standard tissue culture procedures and stable channel expression is maintained with 800 ug/mL G418 and 3 ug/mL Puromycin in the culture medium. Unless otherwise noted, all reagents are purchased from Sigma-Aldrich (St Louis, Mo., U.S.A.).
Assays measuring Voltage-Dependent Block (VDB) of Nav1.3 are performed on an automated electrophysiology platform, QPatch 16X or QPatch HT (Sophion Bioscience, Copenhagen, Denmark), using the whole cell patch clamp technique to measure currents through the cell membrane. Series resistance compensation is set to 100% and series resistance and whole-cell compensation are performed automatically. Currents stored in the Sophion Bioscience Oracle database (Sophion Bioscience, Copenhagen, Denmark). Analysis is performed using QPatch Assay software and data are compiled in Excel 2010 (Microsoft, Seattle, Wash., U.S.A.).
The internal (pipette) solution consists of (in mM) 105 CsF, 10 NaF, 20 CsCl, 2 EGTA, 10 HEPES, 10 Dextrose with a pH of 7.35 and osmolarity of 300 mOsmol/kg. The external (bath) solution contains in (mM): 80 NaCl, 60 Choline-Cl, 4 KCl, 1.8 CaCl2, 1 MgCl2, 10 dextrose, 10 HEPES, with a pH of 7.35 and osmolarity of 310 mOsmol/kg. Experiments are carried out at 23-25° C.
Compound stocks are routinely made by the Gilead Sample Bank in vials to 10 mM in dimethyl sulfoxide (DMSO). In some cases, when compounds are not soluble in DMSO, they are made in 100% ethanol. Stocks are sonicated as necessary. Compounds are diluted in extracellular solution using a MicroLab Nimbus (Hamilton Robotics, Reno, Nev.) to 1 μM in glass vials and transferred to glass well plates before robotic addition to the cells.
Cells are allowed to stabilize for 10 min after establishment of the whole-cell configuration before current is measured. The test compound is applied 3 times at 120 second intervals to allow for equilibration. Currents were leak subtracted using a P/4 procedure, low-pass Bessel filtered at 5 kHz and digitized at 25 kHz. Results are presented as mean percentage inhibition.
Voltage-dependent block of Nav1.3 peak current was measured during a voltage step to 0 mV (20 ms) following a voltage step pre-conditioning steps (−55 mV for 10 sec followed by −120 mV for 10 ms). The holding potential was −120 mV and this voltage protocol induces half maximal inactivation of Nav1.3. The voltage protocol for VDB was performed every 45 seconds in the absence and presence of compound and percentage inhibition was calculated with respect to the compound free condition.

T1 sequence (Q9NY46 1-1951 isoform Q9NY46-2): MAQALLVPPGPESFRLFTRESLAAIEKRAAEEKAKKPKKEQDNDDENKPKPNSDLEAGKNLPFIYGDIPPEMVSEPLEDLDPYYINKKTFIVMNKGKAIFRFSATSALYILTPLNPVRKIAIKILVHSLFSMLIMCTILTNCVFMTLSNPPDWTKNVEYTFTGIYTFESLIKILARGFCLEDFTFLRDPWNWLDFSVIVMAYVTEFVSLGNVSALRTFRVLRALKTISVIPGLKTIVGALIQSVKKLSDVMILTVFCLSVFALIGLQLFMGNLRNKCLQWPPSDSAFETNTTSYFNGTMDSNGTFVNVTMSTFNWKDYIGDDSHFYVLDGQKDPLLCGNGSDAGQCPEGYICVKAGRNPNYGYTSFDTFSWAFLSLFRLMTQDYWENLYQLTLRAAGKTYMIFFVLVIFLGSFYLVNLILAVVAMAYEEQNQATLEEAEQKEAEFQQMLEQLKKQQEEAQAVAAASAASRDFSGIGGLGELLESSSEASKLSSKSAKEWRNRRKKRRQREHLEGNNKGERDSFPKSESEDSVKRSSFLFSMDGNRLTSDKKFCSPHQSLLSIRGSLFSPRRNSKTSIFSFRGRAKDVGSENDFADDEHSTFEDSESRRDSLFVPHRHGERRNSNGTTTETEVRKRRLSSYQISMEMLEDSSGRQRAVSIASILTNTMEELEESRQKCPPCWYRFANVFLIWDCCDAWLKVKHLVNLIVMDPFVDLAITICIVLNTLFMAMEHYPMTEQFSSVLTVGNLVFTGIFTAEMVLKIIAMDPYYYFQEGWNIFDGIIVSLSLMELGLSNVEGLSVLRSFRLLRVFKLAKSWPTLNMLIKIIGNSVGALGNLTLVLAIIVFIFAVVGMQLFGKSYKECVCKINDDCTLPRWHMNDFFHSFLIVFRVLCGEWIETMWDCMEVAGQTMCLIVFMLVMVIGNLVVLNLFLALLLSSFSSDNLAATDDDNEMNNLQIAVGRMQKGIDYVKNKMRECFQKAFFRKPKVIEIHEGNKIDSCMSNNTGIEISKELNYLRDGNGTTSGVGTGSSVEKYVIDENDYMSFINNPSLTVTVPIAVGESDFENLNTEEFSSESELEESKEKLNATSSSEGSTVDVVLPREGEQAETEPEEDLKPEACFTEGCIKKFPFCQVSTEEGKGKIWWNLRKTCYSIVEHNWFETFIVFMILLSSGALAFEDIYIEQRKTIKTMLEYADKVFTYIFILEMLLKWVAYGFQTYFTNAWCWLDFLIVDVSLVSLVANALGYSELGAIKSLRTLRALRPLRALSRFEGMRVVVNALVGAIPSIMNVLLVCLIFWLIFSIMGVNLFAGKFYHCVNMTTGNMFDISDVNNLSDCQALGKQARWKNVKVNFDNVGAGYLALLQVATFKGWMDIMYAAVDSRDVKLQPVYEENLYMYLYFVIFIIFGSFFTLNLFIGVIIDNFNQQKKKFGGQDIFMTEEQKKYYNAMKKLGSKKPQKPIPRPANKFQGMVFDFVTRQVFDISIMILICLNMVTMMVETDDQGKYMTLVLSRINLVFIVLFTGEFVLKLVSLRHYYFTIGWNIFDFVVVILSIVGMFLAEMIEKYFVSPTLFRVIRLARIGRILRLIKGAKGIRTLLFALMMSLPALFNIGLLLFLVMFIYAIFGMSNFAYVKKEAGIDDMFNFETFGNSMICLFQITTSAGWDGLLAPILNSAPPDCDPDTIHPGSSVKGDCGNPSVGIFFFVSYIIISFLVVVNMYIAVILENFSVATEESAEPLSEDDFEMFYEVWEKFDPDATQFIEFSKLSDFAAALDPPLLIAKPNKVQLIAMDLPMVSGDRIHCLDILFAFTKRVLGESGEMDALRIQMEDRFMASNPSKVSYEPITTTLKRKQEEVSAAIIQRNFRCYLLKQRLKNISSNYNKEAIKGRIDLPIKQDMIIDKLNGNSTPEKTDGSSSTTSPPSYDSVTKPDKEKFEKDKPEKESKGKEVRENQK
T1 sequence (Q07699 19-218 partner): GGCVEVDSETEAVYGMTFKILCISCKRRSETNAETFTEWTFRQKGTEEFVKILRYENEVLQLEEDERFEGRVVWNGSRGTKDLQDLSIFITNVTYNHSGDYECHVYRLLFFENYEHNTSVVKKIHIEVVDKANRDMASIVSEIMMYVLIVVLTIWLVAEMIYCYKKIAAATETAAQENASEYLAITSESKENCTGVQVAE
T1 sequence (O60939 30-215 partner): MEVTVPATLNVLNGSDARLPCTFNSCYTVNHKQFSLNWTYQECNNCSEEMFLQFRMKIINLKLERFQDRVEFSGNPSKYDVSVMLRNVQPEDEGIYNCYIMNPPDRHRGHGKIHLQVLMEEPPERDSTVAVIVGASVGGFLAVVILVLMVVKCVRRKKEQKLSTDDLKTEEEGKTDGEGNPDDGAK

Consider `FC(F)(F)COc1ccc(-c2ccc3onc(OCc4ncccn4)c3c2)cn1` [Example 21, 3-(pyrimidin-2-ylmethoxy)-5-(6-(2,2,2-trifluoroethoxy)pyridin-3-yl)benzo[d]isoxazole], for which, in data set [1], the “Rabbit ST Segment (Percent reduction)” value is 66 Percent reduction. This molecule yielded a Plasma concentration in data set [2] of 400 nM. Also, on hNav1.3 (SCN3A), the inhibition at 1 µM was 11.2%. On to `COc1cc(-c2ccc(C(F)(F)F)cc2F)cc2c(OCc3ncccn3)noc12` [Example 24, 5-(2-fluoro-4-(trifluoromethyl)phenyl)-7-methoxy-3-(pyrimidin-2-ylmethoxy)benzo[d]isoxazole], for which, on hNav1.3 (SCN3A), the inhibition at 1 µM is below 5%. On the same count and under the same terms, the figure for `COc1cc(-c2ccc(OC(F)(F)F)cc2C)cc2c(OCc3ncccn3)noc12` [Example 25, 7-methoxy-5-(2-methyl-4-(trifluoromethoxy)phenyl)-3-(pyrimidin-2-ylmethoxy)benzo[d]isoxazole] is 12.3%; for `Cc1cc(OC(F)(F)F)ccc1-c1cc2c(OCc3ncccn3)noc2cc1C` [Example 29, 6-methyl-5-(2-methyl-4-(trifluoromethoxy)phenyl)-3-(pyrimidin-2-ylmethoxy)benzo[d]isoxazole] it is 39.5%; for `FC1(F)Oc2ccc(-c3ccc4onc(OCc5ncccn5)c4c3)cc2O1` [Example 30, 5-(2,2-difluorobenzo[d][1,3]dioxol-5-yl)-3-(pyrimidin-2-ylmethoxy)benzo[d]isoxazole] it is 21.5%. Regarding `FC(F)(F)Oc1ccc(-c2ccc3onc(OCc4cn5ccccc5n4)c3c2)cc1` [Example 51, 3-(imidazo[1,2-a]pyridin-2-ylmethoxy)-5-(4-(trifluoromethoxy)phenyl)benzo[d]isoxazole], the inhibition at 1 µM on hNav1.3 (SCN3A) turned out to be 26.6%.

For the molecule `O=C1CC[C@H](COc2noc3ccc(-c4ccc(OC(F)(F)F)cc4)cc23)N1` [Example 61, (R)-5-(((5-(4-(trifluoromethoxy)phenyl)benzo[d]isoxazol-3-yl)oxy)methyl)pyrrolidin-2-one], the inhibition at 1 µM at hNav1.3 (SCN3A) is 8.6%.
